# In the kinase profiling compilation of Christmann-Franck et al. (2016):
# Experiments:
# Assay in all cases: KINOMEscan competition binding
# Details in all cases: compound 10.0 µM
# PKN2 (human) = PKN2 (human) (UniProt Q16513)
# MAPK13 (human) = MAPK13 (human) (UniProt O15264)
# MUSK (human) = MUSK (human) (UniProt O15146)
# FRK (human) = FRK (human) (UniProt P42685)
# MYLK (human) = MYLK (human) (UniProt Q15746)
# EPHA8 (human) = EPHA8 (human) (UniProt P29322)
# ERBB4 (human) = ERBB4 (human) (UniProt Q15303)
# ERBB4 (human), sequence (Q15303 whole entry, looked up): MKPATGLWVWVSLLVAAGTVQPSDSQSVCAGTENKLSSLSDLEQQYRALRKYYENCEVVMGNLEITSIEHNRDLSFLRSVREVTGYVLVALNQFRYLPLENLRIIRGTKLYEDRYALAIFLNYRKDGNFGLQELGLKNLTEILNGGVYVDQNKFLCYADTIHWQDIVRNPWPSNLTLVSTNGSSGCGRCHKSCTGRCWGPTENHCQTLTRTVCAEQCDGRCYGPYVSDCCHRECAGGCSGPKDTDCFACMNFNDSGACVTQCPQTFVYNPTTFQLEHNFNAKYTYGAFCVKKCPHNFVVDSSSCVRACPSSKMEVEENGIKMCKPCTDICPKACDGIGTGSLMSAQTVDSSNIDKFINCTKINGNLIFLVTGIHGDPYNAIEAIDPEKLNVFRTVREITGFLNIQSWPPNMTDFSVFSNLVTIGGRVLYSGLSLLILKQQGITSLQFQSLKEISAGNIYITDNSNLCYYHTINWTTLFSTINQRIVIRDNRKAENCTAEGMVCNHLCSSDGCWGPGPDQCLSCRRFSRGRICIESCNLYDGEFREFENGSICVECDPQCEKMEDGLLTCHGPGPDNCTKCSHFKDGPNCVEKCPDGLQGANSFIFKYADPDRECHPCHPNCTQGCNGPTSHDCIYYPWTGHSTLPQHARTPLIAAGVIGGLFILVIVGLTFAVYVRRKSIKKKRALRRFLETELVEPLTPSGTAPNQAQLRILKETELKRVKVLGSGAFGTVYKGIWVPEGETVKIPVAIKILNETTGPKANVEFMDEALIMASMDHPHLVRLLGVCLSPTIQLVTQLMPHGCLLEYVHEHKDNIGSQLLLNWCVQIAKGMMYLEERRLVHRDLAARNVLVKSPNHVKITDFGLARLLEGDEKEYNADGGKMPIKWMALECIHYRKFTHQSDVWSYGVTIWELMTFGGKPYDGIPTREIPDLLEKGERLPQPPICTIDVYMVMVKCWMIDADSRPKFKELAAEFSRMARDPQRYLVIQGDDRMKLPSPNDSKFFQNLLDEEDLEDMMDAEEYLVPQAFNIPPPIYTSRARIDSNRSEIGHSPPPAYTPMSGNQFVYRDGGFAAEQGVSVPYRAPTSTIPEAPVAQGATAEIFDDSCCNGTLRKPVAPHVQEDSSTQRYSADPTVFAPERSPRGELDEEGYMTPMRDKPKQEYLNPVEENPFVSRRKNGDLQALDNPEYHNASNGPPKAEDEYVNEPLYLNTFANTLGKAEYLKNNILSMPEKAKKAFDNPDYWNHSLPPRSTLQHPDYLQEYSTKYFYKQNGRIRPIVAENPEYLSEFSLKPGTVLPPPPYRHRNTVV
# RPS6KB1 (human) = RPS6KB1 (human) (UniProt P23443)
# ITK (human) = ITK (human) (UniProt Q08881)
# NEK1 (human) = NEK1 (human) (UniProt Q96PY6)
# MAPK11 (human) = MAPK11 (human) (UniProt Q15759)
# PRKCH (human) = PRKCH (human) (UniProt P24723)
# MAPK14 (human) = MAPK14 (human) (UniProt Q16539)
# MAPK14 (human), sequence (Q16539 whole entry, looked up): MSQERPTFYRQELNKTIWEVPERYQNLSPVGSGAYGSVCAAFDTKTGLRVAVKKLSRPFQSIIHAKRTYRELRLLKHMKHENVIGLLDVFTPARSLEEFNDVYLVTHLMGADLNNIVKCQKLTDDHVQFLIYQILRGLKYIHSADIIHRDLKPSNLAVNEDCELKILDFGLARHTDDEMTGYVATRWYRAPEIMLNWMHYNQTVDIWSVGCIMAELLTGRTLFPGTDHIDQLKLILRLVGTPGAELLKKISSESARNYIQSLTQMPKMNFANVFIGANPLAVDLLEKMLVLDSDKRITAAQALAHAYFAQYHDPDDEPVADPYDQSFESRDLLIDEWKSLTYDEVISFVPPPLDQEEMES
# STK3 (human) = STK3 (human) (UniProt Q13188)
# MAK (human) = MAK (human) (UniProt P20794)
# TNK2 (human) = TNK2 (human) (UniProt Q07912)
# EIF2AK2 (human) = EIF2AK2 (human) (UniProt P19525)
# GAK (human) = GAK (human) (UniProt O14976)
# ULK1 (human) = ULK1 (human) (UniProt O75385)
# KIT (human) = KIT (human) (UniProt P10721)
# MAP2K6 (human) = MAP2K6 (human) (UniProt P52564)
# LATS2 (human) = LATS2 (human) (UniProt Q9NRM7)
# [1] = test system: MET (human), P08581 [M1250T]
# [2] = test system: KIT (human), P10721 [D816H]
# KIT (human), P10721 [D816H], sequence (P10721 whole entry D816H, looked up): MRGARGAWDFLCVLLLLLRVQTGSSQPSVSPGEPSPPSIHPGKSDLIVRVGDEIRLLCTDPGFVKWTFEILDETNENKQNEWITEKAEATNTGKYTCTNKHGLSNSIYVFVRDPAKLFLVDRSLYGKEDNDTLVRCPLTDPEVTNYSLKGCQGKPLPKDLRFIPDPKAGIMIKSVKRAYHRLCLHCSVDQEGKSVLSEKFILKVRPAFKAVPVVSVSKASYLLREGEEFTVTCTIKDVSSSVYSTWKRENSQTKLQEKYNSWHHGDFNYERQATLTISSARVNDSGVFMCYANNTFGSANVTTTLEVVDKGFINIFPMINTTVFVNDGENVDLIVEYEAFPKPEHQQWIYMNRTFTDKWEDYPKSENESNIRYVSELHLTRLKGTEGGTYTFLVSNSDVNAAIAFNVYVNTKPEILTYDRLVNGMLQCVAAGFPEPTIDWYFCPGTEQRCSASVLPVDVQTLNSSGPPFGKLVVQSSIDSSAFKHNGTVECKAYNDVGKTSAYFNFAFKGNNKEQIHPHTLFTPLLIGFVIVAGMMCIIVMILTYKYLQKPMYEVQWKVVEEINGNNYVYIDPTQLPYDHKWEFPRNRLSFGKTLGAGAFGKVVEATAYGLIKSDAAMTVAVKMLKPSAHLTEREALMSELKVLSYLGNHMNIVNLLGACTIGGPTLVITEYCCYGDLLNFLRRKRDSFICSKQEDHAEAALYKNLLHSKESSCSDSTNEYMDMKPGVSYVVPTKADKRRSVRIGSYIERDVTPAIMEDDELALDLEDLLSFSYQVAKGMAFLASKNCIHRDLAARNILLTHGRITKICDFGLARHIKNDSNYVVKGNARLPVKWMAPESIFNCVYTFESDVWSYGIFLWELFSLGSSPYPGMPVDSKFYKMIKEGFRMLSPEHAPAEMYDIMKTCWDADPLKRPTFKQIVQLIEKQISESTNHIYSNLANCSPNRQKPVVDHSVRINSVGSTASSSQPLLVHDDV
# LATS1 (human) = LATS1 (human) (UniProt O95835)
# [3] = test system: EGFR (human), P00533 [A750P; 747-749 del]
# STK16 (human) = STK16 (human) (UniProt O75716)
# MERTK (human) = MERTK (human) (UniProt Q12866)
# MERTK (human), sequence (Q12866 whole entry, looked up): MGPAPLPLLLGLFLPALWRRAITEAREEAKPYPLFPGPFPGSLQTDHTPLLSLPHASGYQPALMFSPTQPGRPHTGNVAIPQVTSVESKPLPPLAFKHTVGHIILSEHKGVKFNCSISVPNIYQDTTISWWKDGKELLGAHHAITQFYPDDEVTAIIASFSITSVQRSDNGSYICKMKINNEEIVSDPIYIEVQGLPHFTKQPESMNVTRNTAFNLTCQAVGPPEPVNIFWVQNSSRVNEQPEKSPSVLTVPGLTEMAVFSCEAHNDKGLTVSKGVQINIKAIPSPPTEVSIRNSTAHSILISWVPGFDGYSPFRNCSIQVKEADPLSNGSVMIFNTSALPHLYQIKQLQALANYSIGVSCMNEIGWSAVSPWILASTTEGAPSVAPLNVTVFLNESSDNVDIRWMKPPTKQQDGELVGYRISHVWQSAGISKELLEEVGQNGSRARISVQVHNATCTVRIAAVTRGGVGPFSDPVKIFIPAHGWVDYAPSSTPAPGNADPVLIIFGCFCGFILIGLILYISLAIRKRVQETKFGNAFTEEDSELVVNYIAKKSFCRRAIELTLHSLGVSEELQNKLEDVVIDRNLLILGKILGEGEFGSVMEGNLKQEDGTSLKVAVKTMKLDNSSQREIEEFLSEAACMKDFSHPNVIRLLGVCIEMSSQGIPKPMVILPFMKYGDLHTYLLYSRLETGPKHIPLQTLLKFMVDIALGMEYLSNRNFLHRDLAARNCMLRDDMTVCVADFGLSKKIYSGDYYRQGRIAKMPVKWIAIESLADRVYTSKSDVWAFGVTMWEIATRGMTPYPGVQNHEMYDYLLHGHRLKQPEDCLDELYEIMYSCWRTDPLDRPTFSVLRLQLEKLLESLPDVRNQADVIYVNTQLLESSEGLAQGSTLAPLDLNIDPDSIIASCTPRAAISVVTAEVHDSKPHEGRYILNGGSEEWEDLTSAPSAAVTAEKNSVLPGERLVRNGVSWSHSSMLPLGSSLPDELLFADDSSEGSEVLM
# PRKG1 (human) = PRKG1 (human) (UniProt Q13976)
# PIP5K1A (human) = PIP5K1A (human) (UniProt Q99755)
# FER (human) = FER (human) (UniProt P16591)
# CAMK1D (human) = CAMK1D (human) (UniProt Q8IU85)
# VRK2 (human) = VRK2 (human) (UniProt Q86Y07)
# TIE1 (human) = TIE1 (human) (UniProt P35590)
# TIE1 (human), sequence (P35590 whole entry, looked up): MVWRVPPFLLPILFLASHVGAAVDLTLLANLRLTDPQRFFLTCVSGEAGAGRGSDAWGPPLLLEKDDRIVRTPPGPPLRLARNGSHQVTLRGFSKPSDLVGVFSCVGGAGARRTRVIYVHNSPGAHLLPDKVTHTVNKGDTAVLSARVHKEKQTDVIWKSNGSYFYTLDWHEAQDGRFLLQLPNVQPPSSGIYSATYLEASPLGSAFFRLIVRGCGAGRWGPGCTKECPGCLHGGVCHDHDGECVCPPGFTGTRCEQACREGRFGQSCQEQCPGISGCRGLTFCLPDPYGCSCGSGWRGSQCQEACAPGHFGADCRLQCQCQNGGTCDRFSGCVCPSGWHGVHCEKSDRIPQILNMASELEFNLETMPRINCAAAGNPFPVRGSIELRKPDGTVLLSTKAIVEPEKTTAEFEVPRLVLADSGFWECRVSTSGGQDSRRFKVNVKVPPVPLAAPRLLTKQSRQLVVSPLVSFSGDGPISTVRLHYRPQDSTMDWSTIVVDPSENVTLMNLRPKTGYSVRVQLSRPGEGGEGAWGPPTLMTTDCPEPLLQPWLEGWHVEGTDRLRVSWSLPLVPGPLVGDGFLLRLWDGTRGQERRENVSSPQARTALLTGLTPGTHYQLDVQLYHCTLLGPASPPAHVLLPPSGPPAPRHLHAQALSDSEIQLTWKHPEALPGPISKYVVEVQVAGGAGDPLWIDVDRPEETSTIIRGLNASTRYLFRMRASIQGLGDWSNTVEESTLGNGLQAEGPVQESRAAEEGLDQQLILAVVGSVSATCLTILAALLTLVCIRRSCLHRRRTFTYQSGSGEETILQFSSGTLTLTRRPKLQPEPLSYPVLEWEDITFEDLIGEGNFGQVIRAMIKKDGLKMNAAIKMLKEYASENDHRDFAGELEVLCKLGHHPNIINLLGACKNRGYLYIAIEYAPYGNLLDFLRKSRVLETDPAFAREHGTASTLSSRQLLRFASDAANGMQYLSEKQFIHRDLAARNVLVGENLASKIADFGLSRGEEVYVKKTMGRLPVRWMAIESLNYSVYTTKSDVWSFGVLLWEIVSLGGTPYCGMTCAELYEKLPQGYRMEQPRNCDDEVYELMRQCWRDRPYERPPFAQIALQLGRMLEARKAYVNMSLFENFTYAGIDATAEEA
# EPHA1 (human) = EPHA1 (human) (UniProt P21709)
# DDR2 (human) = DDR2 (human) (UniProt Q16832)
# CAMK2A (human) = CAMK2A (human) (UniProt Q9UQM7)
# NEK6 (human) = NEK6 (human) (UniProt Q9HC98)
# NEK6 (human), sequence (Q9HC98 whole entry, looked up): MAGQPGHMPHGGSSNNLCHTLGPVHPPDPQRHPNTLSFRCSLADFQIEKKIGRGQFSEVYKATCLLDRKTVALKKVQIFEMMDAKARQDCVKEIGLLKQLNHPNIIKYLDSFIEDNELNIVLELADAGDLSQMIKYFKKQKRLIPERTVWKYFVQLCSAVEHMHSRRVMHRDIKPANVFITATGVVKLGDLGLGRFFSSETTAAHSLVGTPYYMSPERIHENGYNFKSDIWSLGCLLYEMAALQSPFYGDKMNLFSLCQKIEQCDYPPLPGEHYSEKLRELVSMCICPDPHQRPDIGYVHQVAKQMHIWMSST
# AKT1 (human) = AKT1 (human) (UniProt P31749)
# TGFBR1 (human) = TGFBR1 (human) (UniProt P36897)
Structure (SMILES),"kinase still bound, per cent of control (PKN2 (human))","kinase still bound, per cent of control (MAPK13 (human))","kinase still bound, per cent of control (MUSK (human))","kinase still bound, per cent of control (FRK (human))","kinase still bound, per cent of control (MYLK (human))","kinase still bound, per cent of control (EPHA8 (human))","kinase still bound, per cent of control (ERBB4 (human))","kinase still bound, per cent of control (RPS6KB1 (human))","kinase still bound, per cent of control (ITK (human))","kinase still bound, per cent of control (NEK1 (human))","kinase still bound, per cent of control (MAPK11 (human))","kinase still bound, per cent of control (PRKCH (human))","kinase still bound, per cent of control (MAPK14 (human))","kinase still bound, per cent of control (STK3 (human))","kinase still bound, per cent of control (MAK (human))","kinase still bound, per cent of control (TNK2 (human))","kinase still bound, per cent of control (EIF2AK2 (human))","kinase still bound, per cent of control (GAK (human))","kinase still bound, per cent of control (ULK1 (human))","kinase still bound, per cent of control (KIT (human))",also measured
CCCS(=O)(=O)Nc1ccc(F)c(C(=O)c2c[nH]c3ncc(Cl)cc23)c1F,100%,85%,71%,19%,79%,95%,73%,58%,99%,72%,100%,100%,60%,21%,71%,8.2%,74%,40%,44%,0.1%,"kinase still bound, per cent of control (MAP2K6 (human)): 47%; kinase still bound, per cent of control (LATS2 (human)): 86%; kinase still bound, per cent of control [1]: 78%; kinase still bound, per cent of control [2]: 93%; kinase still bound, per cent of control (LATS1 (human)): 86%; kinase still bound, per cent of control [3]: 77%; kinase still bound, per cent of control (STK16 (human)): 18%; kinase still bound, per cent of control (MERTK (human)): 94%; kinase still bound, per cent of control (PRKG1 (human)): 100%; kinase still bound, per cent of control (PIP5K1A (human)): 100%; kinase still bound, per cent of control (FER (human)): 58%; kinase still bound, per cent of control (CAMK1D (human)): 78%; kinase still bound, per cent of control (VRK2 (human)): 77%; kinase still bound, per cent of control (TIE1 (human)): 61%; kinase still bound, per cent of control (EPHA1 (human)): 100%; kinase still bound, per cent of control (DDR2 (human)): 15%; kinase still bound, per cent of control (CAMK2A (human)): 84%; kinase still bound, per cent of control (NEK6 (human)): 91%; kinase still bound, per cent of control (AKT1 (human)): 100%; kinase still bound, per cent of control (TGFBR1 (human)): 60%"
C=CC(=O)Nc1ccc(C(=O)c2sc(Nc3ccc(N4CCN(C)CC4)cc3OC)nc2N)cc1,100%,100%,100%,48%,8.6%,88%,61%,100%,74%,64%,4.1%,100%,2.7%,98%,100%,82%,100%,0.8%,5.1%,78%,"kinase still bound, per cent of control (MAP2K6 (human)): 96%; kinase still bound, per cent of control (LATS2 (human)): 100%; kinase still bound, per cent of control [1]: 91%; kinase still bound, per cent of control [2]: 70%; kinase still bound, per cent of control (LATS1 (human)): 82%; kinase still bound, per cent of control [3]: 61%; kinase still bound, per cent of control (STK16 (human)): 50%; kinase still bound, per cent of control (MERTK (human)): 100%; kinase still bound, per cent of control (PRKG1 (human)): 74%; kinase still bound, per cent of control (PIP5K1A (human)): 34%; kinase still bound, per cent of control (FER (human)): 82%; kinase still bound, per cent of control (CAMK1D (human)): 0.55%; kinase still bound, per cent of control (VRK2 (human)): 96%; kinase still bound, per cent of control (TIE1 (human)): 67%; kinase still bound, per cent of control (EPHA1 (human)): 100%; kinase still bound, per cent of control (DDR2 (human)): 100%; kinase still bound, per cent of control (CAMK2A (human)): 1.2%; kinase still bound, per cent of control (NEK6 (human)): 73%; kinase still bound, per cent of control (AKT1 (human)): 100%; kinase still bound, per cent of control (TGFBR1 (human)): 96%"
